Measurements taken from patent US20250025411A1, “READILY SOLUBLE AND THERMOSTABLE GLUCAGON FORMULATIONS AND DELIVERY FOR MINI-DOSING AND CLOSED -LOOP PROPHYLACTIC TREATMENT OF HYPOGLYCEMIA” (Massachusetts Institute of Technology, priority 2023, published 2025).

How the values were obtained:
[1] = High throughput screening of water-soluble solid excipients for glucagon dissolution; type: physicochemical; conditions: 37° C.; for Fold change vs. PBS Avg.: 30-minute incubation in pH 7.4 PBS containing 1 mg/mL excipient; for Glucagon concentration Avg.: solubilized glucagon after 30-minute incubation of lyophilized glucagon in pH 7.4 PBS containing 1 mg/mL excipient
[2] = Dissolution kinetics of solid glucagon tablets; type: physicochemical; conditions: pH 7.4 PBS, 37° C.
Source text: Many of the top hits in the excipient screening (e.g., benzoic acid and sodium carbonate) promote glucagon dissolution by altering solution pH. Unlike many other successful excipients, the zwitterionic compound MSB can enhance glucagon dissolution in PBS without altering solution pH.
The excipients were cryo-milled and sieved to a particle size of 63-120 μm (230-120 mesh) before being combined with lyophilized glucagon powder. Solid glucagon formulations were manufactured by tablet compaction of the drug-excipient mixture (1 mm diameter die, 400 N compaction force) using an RD10A Natoli Tablet press. Magnesium stearate, a common lubricant used in tableting, was excluded from this process. The solid formulations were stored at 4° C. until use.
The dissolution kinetics of the solid formulations were assessed by incubating the solid glucagon formulations in 2 mL of pH 7.4 PBS, stored at 37° C. on an orbital shaker. At predetermined timepoints, 200 μL of supernatant was removed for HPLC analysis and an equivalent volume of release medium was replaced. The samples were diluted with equal parts of acetonitrile and analyzed using RP-HPLC.

Fold change vs. PBS Avg. [1] [fold] | Glucagon concentration Avg. [1] [mg/mL] | Compound | dissolution of solid glucagon formulation in neutral pH buffer [2]
1.32 | 0.28 | OC[C@H]1O[C@@](CO)(O[C@H]2O[C@H](CO)[C@@H](O)[C@H](O)[C@H]2O)[C@@H](O)[C@@H]1O [Sucrose] | –
1.75 | 0.38 | O=S(=O)(O)CCNC(CO)(CO)CO [TES] | –
0.08 | 0.02 | O=C(OC[C@H]1O[C@@H](OC(=O)c2cc(O)c(O)c(OC(=O)c3cc(O)c(O)c(O)c3)c2)[C@H](OC(=O)c2cc(O)c(O)c(OC(=O)c3cc(O)c(O)c(O)c3)c2)[C@@H](OC(=O)c2cc(O)c(O)c(OC(=O)c3cc(O)c(O)c(O)c3)c2)[C@@H]1OC(=O)c1cc(O)c(O)c(OC(=O)c2cc(O)c(O)c(O)c2)c1)c1cc(O)c(O)c(OC(=O)c2cc(O)c(O)c(O)c2)c1 [Tannic Acid] | –
1.11 | 0.24 | NCCS(=O)(=O)O [Taurine] | –
2.50 | 0.54 | NC(CO)(CO)CO [Tris base] | –
1.89 | 0.41 | CC(C)[C@H](N)C(=O)O [Valine] | –
1.56 | 0.34 | Betadex Sulfobutyl Ether Sodium | –
1.27 | 0.27 | Methyl-B-Cyclodextrin | –
– | – | glucagon [unformulated glucagon] | remained largely insoluble

Compound | Fold change vs. PBS Avg. [1] [fold] | Glucagon concentration Avg. [1] [mg/mL] | dissolution of solid glucagon formulation in neutral pH buffer [2]
O=S([O-])S(=O)[O-].[Na+].[Na+] [Sodium Dithionite] | 2.25 | 0.49 | –
O=C([O-])[C@H](O)[C@@H](O)[C@H](O)[C@H](O)CO.[Na+] [Sodium Gluconate] | 0.69 | 0.15 | –
O=C([O-])c1ccccc1O.[Na+] [Sodium Salicylate] | 1.84 | 0.40 | –
Bovine serum albumin | 2.86 | 0.62 | –
Sodium deoxycholate | 1.75 | 0.38 | –
